Test results as given in ChEMBL document CHEMBL4130525, “gem-Dinitroalkyl Benzenes: A Novel Class of IOP-Lowering Agents for the Treatment of Ocular Hypertension” (ACS Med Chem Lett, 2017).
Several values for one entry are separate records, joined by “and”; a condition that tells them apart may be missing. Identical values can stand only once. Activity calls are given as the source filed them. The rule behind the calls is not given here.

Assays:
Thoracic aorta [1] = experiment: Vasodilatory activity in denuded Wistar rat thoracic aorta assessed as relaxation of L-phenylephrine-induced contractions of aortic strips; type: functional, tissue-based
Oryctolagus cuniculus [2] = experiment: Antiglaucoma activity in hypertonic saline-induced New Zealand albino rabbit transient ocular hypertensive model assessed as IOP lowering efficacy at 1% dose administered topically immediately after hypertonic saline injection measured at 60 mins post dose; type: functional
Oryctolagus cuniculus [3] = experiment: Antiglaucoma activity in hypertonic saline-induced New Zealand albino rabbit transient ocular hypertensive model assessed as IOP lowering efficacy at 1% dose administered topically immediately after hypertonic saline injection measured at 120 mins post dose; type: functional
Oryctolagus cuniculus [4] = experiment: Antiglaucoma activity in hypertonic saline-induced New Zealand albino rabbit transient ocular hypertensive model assessed as IOP lowering efficacy at 1% dose administered topically immediately after hypertonic saline injection measured at 240 mins post dose; type: functional
[5] = Lipophilicity, log P of the compound by shake flask method; type: physicochemical; details: octanol/water
[6] = Induction of NO release assessed as nitrite formation at 0.1 mM in phosphate buffer saline at pH 7.4 in absence of L-cysteine measured after 1 hr by Griess assay; type: functional
[7] = Induction of NO release assessed as nitrite formation at 0.1 mM in phosphate buffer saline at pH 7.4 in absence of L-cysteine measured after 6 hrs by Griess assay; type: functional
[8] = Induction of NO release assessed as nitrite formation at 0.1 mM in phosphate buffer saline at pH 7.4 in presence of 5 mM of L-cysteine measured after 1 hr by Griess assay; type: functional
[9] = Induction of NO release assessed as nitrite formation at 0.1 mM in phosphate buffer saline at pH 7.4 in presence of 5 mM of L-cysteine measured after 6 hrs by Griess assay; type: functional
[10] = Induction of NO release assessed as nitrite formation at 0.1 mM in phosphate buffer saline at pH 7.4 in presence of 5 mM of L-cysteine by Griess assay; type: functional; details: TDE = time-dependent effect
Thoracic aorta [11] = experiment: Vasodilatory activity in denuded Wistar rat thoracic aorta assessed as relaxation of L-phenylephrine-induced contractions of aortic strips in presence of 1 uM of soluble guanylate cyclase inhibitor ODQ; type: functional; design: scale not given: the % may be the effect or the level left
[12] = Induction of NO release assessed as nitrite formation at 0.1 mM in phosphate buffer saline at pH 7.4 in presence of 5 mM of L-cysteine measured up to 24 hrs by Griess assay; type: functional
[13] = Induction of NO release assessed as nitrite formation at 0.1 mM in phosphate buffer saline at pH 7.4 in absence of L-cysteine measured up to 24 hrs by Griess assay; type: functional
[14] = n-Octanol-water distribution coefficient, log D of the compound at pH 7.4 after 20 mins by UV-spectrphotometric based shake-flask method; type: physicochemical
[15] = Ionization constant, pKa of the compound in KCl at pH 1.8 by potentiometric titration; type: physicochemical
[16] = Induction of NO release assessed as nitrite formation at 0.1 mM in HCl at pH 1.5 in absence of L-cysteine measured after 1 hr by Griess assay; type: functional
[17] = Induction of NO release assessed as nitrite formation at 0.1 mM in HCl at pH 1.5 in absence of L-cysteine measured after 6 hrs by Griess assay; type: functional
[18] = Drug metabolism assessed as anisic acid formation after 24 hrs by HPLC analysis; type: physicochemical
[19] = Induction of NO release assessed as nitrite formation at 0.1 mM in phosphate buffer saline at pH 1.5 to 7.4 measured up to 24 hrs by Griess assay; type: functional
Oryctolagus cuniculus [20] = experiment: Antiglaucoma activity in carbomer-induced New Zealand albino rabbit transient ocular hypertensive model assessed as reduction in IOP at 1% dose administered topically everyday for 5 days measured 1 hr post drug instillation; type: functional, organism-based
Oryctolagus cuniculus [21] = experiment: Antiglaucoma activity in carbomer-induced New Zealand albino rabbit transient ocular hypertensive model assessed as reduction in IOP at 1% dose administered topically measured after 24 hrs; type: functional, organism-based
[22] = Rattus norvegicus, Thoracic aorta

| SMILES | Activity (Oryctolagus cuniculus [2]) | Activity (Oryctolagus cuniculus [3]) | Activity (Oryctolagus cuniculus [4]) | logP [5] | Activity [6] | Activity [7] | Activity [8] | Activity [9] | Activity [10] | EC50 (Thoracic aorta [1]) | Activity (Thoracic aorta [11]) | further results |
| --- | --- | --- | --- | --- | --- | --- | --- | --- | --- | --- | --- | --- |
| CCOC(=O)[N-]c1c[n+](N2CCOCC2)no1 [MOLSIDOMINE] | -4.6 mmHg | 0.12 mmHg | -0.34 mmHg |  |  |  |  |  |  |  |  | EC50 (Thoracic aorta [1]; [22]): 18 µM; Drug metabolism (Oryctolagus cuniculus [4]): Metabolite detected |
| CC(c1ccccc1)([N+](=O)[O-])[N+](=O)[O-] | -5.6 mmHg | -10.5 mmHg | 0.3 mmHg | 2.34 | inactive | inactive | < 0.5% | 2% | Tde | 50 µM and 24 µM |  |  |
| CC(c1ccc(C(F)(F)F)cc1)([N+](=O)[O-])[N+](=O)[O-] | -6.9 mmHg | -10.4 mmHg | -0.34 mmHg | 2.92 | inactive | inactive | 0.8% | 4.6% | Tde |  | 19% |  |
| COCCOCCOCCOc1ccc(C(C)([N+](=O)[O-])[N+](=O)[O-])cc1 | -12.7 mmHg | 0.11 mmHg | Active | 1.63 | 2.6% | 12.8% | 2.7% | 13.8% |  | 55 µM and 264 µM |  | Activity [12]: Active; Activity [13]: Active |
| COc1ccc(C([N+](=O)[O-])[N+](=O)[O-])cc1 | -10.7 mmHg | -1.1 mmHg | Active |  |  |  |  |  |  |  |  | logD at 20 min [14]: -1.21; pKa [15]: 3.9; Activity [16]: 1.3%; Activity [17]: 4%; EC50 (Thoracic aorta [1]; [22]): 64 µM; Drug metabolism [18]: Dose-dependent effect; Activity [19]: Dose-dependent effect |
| COc1ccc(C(C)([N+](=O)[O-])[N+](=O)[O-])cc1 | -7.3 mmHg | -0.11 mmHg | Active | 2.2 | 3% | 24.9% | 3.5% | 25.4% |  |  | 40% | Activity [12]: Active; Activity [13]: Active; Activity [19]: Dose-dependent effect |
| Cc1ccc(C(C)([N+](=O)[O-])[N+](=O)[O-])cc1 | -4.9 mmHg | -6.7 mmHg | -0.04 mmHg | 2.69 | inactive | inactive | < 0.5% | 1.3% | Tde | 4 µM and 20 µM | 24% | Activity (Oryctolagus cuniculus [20]): Active; Activity (Oryctolagus cuniculus [21]): Dose-dependent effect |
